In assay [1] the target is JAK1 (recombinant purified GST-tagged catalytic domain) (Homo sapiens (Human), UniProt P23458). Briefly: Jak Biochemical HTRF Assay (JAK1). Particulars: [ATP] 31.8 μM. In short, it runs like this:
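Read-out is the 665/615 nm time-resolved FRET ratio from Eu-pY20 antibody and streptavidin-Dylight 650 bound to phosphorylated biotin-peptide. Reactions ran 120 min at room temperature after ATP start. Inhibition normalized to untreated controls gave IC50 via 4-parameter fit.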

The target in assay [2] is JAK2 (recombinant purified GST-tagged catalytic domain) (Homo sapiens (Human), UniProt O60674). Nature of the assay: Jak Biochemical HTRF Assay (JAK2). The following applies: [ATP] 8.5 μM.
JAK2 (recombinant purified GST-tagged catalytic domain), sequence (O60674 849-1124): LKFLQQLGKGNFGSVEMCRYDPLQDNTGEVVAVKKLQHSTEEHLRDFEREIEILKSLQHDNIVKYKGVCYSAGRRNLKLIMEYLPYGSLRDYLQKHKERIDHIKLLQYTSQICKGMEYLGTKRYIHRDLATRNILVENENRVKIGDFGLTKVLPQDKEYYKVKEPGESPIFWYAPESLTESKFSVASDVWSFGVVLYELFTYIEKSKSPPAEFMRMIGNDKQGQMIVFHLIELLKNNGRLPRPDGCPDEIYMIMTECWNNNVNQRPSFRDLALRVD

JAK1 (recombinant purified GST-tagged catalytic domain), sequence (P23458 875-1153): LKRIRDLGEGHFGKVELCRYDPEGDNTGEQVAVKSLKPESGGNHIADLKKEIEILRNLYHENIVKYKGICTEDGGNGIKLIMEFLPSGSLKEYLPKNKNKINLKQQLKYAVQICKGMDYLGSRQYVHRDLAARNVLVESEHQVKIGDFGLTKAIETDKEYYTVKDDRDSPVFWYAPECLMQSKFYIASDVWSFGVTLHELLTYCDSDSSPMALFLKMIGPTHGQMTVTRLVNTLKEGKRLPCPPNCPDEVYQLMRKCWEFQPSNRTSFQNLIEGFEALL

For `CC(C)(C)OC(=O)N1CCC(CC#N)(n2nc(Nc3ccc([C@]4(C(F)(F)F)CCCN4)cc3)c3c(=O)[nH]ccc32)CC1` (single isomer, unassigned) [Example 21-19, (S or R)-tert-butyl 4-(cyanomethyl)-4-(4-oxo-3-(4-(2-(trifluoromethyl)pyrrolidin-2-yl)phenylamino)-4,5-dihydropyrazolo[4,3-c]pyridin-1-yl)piperidine-1-carboxylate], the IC50 in assay [1] stood at 450 pM; in assay [2], 500 pM.
As to `Cc1cc(Nc2nn([C@@]3(CC#N)CCOC[C@H]3F)c3cc[nH]c(=O)c23)ccc1C(=O)N1CCSCC1` (single isomer, unassigned) [Example 5-261, 2-((3S,4S or 3R,4R)-3-fluoro-4-(3-(3-methyl-4-(thiomorpholine-4-carbonyl)phenylamino)-4-oxo-4,5-dihydropyrazolo[4,3-c]pyridin-1-yl)-tetrahydro-2H-pyran-4-yl)acetonitrile], the results for the IC50 in assay [1] and in assay [2] were 2260 pM and 2740 pM, respectively.
For `CN(C)S(=O)(=O)c1cccc(Nc2nn(C3(CC#N)CCN(Cc4cccnc4)CC3)c3cc[nH]c(=O)c23)c1` [Example 8-19, 3-({1-[4-(cyanomethyl)-1-(pyridin-3-ylmethyl)piperidin-4-yl]-4-oxo-4,5-dihydro-1H-pyrazolo[4,3-c]pyridin-3-yl}amino)-N,N-dimethylbenzenesulfonamide], in that order: 1190 pM and 1980 pM.
As for `CC(C)c1ccc(CN2CCC(CC#N)(n3nc(Nc4ccc(S(=O)(=O)N(C)C)cc4)c4c(=O)[nH]ccc43)CC2)cc1` [Example 8-4, 4-[(1-{4-(cyanomethyl)-1[4-(1-methylethyl)benzyl]piperidin-4-yl}-4-oxo-4,5-dihydro-1H-pyrazolo[4,3-c]pyridin-3-yl)amino]-N,N-dimethylbenzenesulfonamide], the IC50 came out at 6900 pM in assay [1] and 33100 pM in assay [2].
For `Cc1cc(Nc2nn([C@]3(CC#N)CC[C@@H](C(=O)OC(C)(C)C)OC3)c3cc[nH]c(=O)c23)ccc1C(=O)N1CCOC(C)C1` (single isomer, unassigned) [Example 20-11, (2S,5S)-tert-butyl 5-(cyanomethyl)-5-(3-((3-methyl-4-((S or R)-2-methylmorpholine-4-carbonyl)phenyl)amino)-4-oxo-4,5-dihydro-1H-pyrazolo[4,3-c]pyridin-1-yl)tetrahydro-2H-pyran-2-carboxylate], in that order: 230 pM and 350 pM.
Consider `N#CC[C@]1(n2nc(Nc3ccc(Cl)cc3)c3c(=O)[nH]ccc32)CC[C@H](Nc2ccccc2)CC1` [Example 18-14, Trans 2-(1-(3-((4-chlorophenyl)amino)-4-oxo-4,5-dihydro-1H-pyrazolo[4,3-c]pyridin-1-yl)-4-(phenylamino)cyclohexyl)acetonitrile], for which the figures for the IC50 in assay [1] and in assay [2] were 1710 pM and 32400 pM, respectively.
For `N#CCC1(n2nc(Nc3ccc(S(=O)(=O)C(F)F)cc3)c3c(=O)[nH]ccc32)CCN(c2ccc(C#N)cn2)CC1` [Example 15-3, 6-(4-(cyanomethyl)-4-(3-((4((difluoromethyl)sulfonyl)phenyl)amino)-4-oxo-4,5-dihydro-1H-pyrazolo[4,3-c]pyridin-1-yl)piperidin-1-yl)nicotinonitrile], the IC50 in assay [1] turned out to be 250 pM; in assay [2] it was 260 pM.
For `Cc1nc2ccc(Nc3nn(C4(CC#N)CCCOC4)c4cc[nH]c(=O)c34)cc2s1` (stereo in doubt) [Example 21-5, [(3S)-3-{3-[(2-methyl-1,3-benzothiazol-6-yl)amino]-4-oxo-4,5-dihydro-1H-pyrazolo[4,3-c]pyridin-1-yl}tetrahydro-2H-pyran-3-yl]acetonitrile], in that order: 90 pM and 1320 pM.
On to `N#CC[C@]1(n2nc(Nc3ccc(C(F)(F)F)cc3)c3c(=O)[nH]ccc32)CC[C@H](Nc2ccccc2)CC1` [Example 18-4, Trans 2-(1-(4-oxo-3-((4-(trifluoromethyl)phenyl)amino)-4,5-dihydro-1H-pyrazolo[4,3-c]pyridin-1-yl)-4-(phenylamino)cyclohexyl)acetonitrile], for which the IC50 in assay [1] came to 6330 pM; in assay [2] it was 102000 pM.
Taken in the same sequence, the figures for `CN(C(=O)[C@@H]1CC[C@@](CC#N)(n2nc(Nc3ccc4c(c3)CN(C(C)(C)C)S4(=O)=O)c3c(=O)[nH]ccc32)CO1)C(C)(C)C` [Example 19-2, (2S,5S)-N-tert-butyl-5-{3-[(2-tert-butyl-1,1-dioxido-2,3-dihydro-1,2-benzisothiazol-5-yl)amino]-4-oxo-4,5-dihydro-1H-pyrazolo[4,3-c]pyridin-1-yl}-5-(cyanomethyl)-N-methyltetrahydro-2H-pyran-2-carboxamide] were 100 pM and 2070 pM.
For `N#CC[C@@]1(n2nc(Nc3ccccc3)c3c(=O)[nH]ccc32)CCCOC1` [Example 5-27, (S)-2-(3-(4-oxo-3-(phenylamino)-4,5-dihydro-1H-pyrazolo[4,3-c]pyridin-1-yl)tetrahydro-2H-pyran-3-yl)acetonitrile], in that order: 220 pM and 2810 pM.
`CC(C)(C)OC(=O)[C@@H]1CC[C@@](CC#N)(n2nc(Nc3ccc(S(=O)(=O)C4CC4)cc3)c3c(=O)[nH]ccc32)CO1` [Example 5-99, (2S,5S)-tert-butyl 5-(cyanomethyl)-5-(3-((4-(cyclopropylsulfonyl)phenyl)amino)-4-oxo-4,5-dihydro-1H-pyrazolo [4,3-c]pyridin-1-yl) tetrahydro-2H-pyran-2-carboxylate]: the IC50 in assay [1] was 50 pM; in assay [2], 140 pM.
In the case of `CN(C)S(=O)(=O)c1ccc(Nc2nn(C3(CC#N)CCN(C(=O)OCC(F)(F)F)CC3)c3cc[nH]c(=O)c23)cc1` [Example 12, 2,2,2-trifluoroethyl 4-(cyanomethyl)-4-(3-((4-(N,N-dimethylsulfamoyl)phenyl)amino)-4-oxo-4,5-dihydro-1H-pyrazolo[4,3-c]pyridin-1-yl)piperidine-1-carboxylate], the IC50 in assay [1] stood at 110 pM; in assay [2], 240 pM.
For `CC(C)(C)N1Cc2cc(Nc3nn([C@]4(CC#N)CC[C@H](N5CC(F)C5)CC4)c4cc[nH]c(=O)c34)ccc2S1(=O)=O` [Example 18-36], in that order: 830 pM and 6850 pM.
Taken in the same sequence, the figures for `COC(=O)N1CCC(CC#N)(n2nc(Nc3ccc4c(c3)CN(CC(C)C)S4(=O)=O)c3c(=O)[nH]ccc32)CC1` [Example 5-73, methyl 4-(cyanomethyl)-4-(3-{[2-(2-methylpropyl)-1,1-dioxo-2,3-dihydro-1,2-benzothiazol-5-yl]amino}-4-oxo-1H,4H,5H-pyrazolo [4,3-c]pyridin-1-yl) piperidine-1-carboxylate] were 120 pM and 350 pM.
On to `COC1CN([C@H]2CC[C@](CC#N)(n3nc(Nc4ccc(Cl)cc4)c4c(=O)[nH]ccc43)CC2)C1` [Example 18-8, Trans 2-(1-(3-((4-chlorophenyl)amino)-4-oxo-4,5-dihydro-1H-pyrazolo[4,3-c]pyridin-1-yl)-4-(3-methoxyazetidin-1-yl)cyclohexyl)acetonitrile], for which the IC50 worked out at 30 pM in assay [1] and 2530 pM in assay [2].
Consider `CC(C)(C)S(=O)(=O)c1ccc(Nc2nn(C3(CC#N)CCCC3)c3cc[nH]c(=O)c23)cc1` [Example 5-122, 2-(1-(3-((4-(tert-butylsulfonyl)phenyl)amino)-4-oxo-4,5-dihydro-1H-pyrazolo[4,3-c]pyridin-1-yl)cyclopentyl)acetonitrile], for which the IC50 in assay [1] was 220 pM; in assay [2], 480 pM.
For `CC(C)(C)N1Cc2cc(Nc3nn([C@]4(CC#N)CC[C@@H](N5CC(F)C5)CC4)c4cc[nH]c(=O)c34)ccc2S1(=O)=O` [Example 18-35], in that order: 210 pM and 210 pM.
For `COC(=O)N1CCC(CC#N)(n2nc(Nc3ccc4c(c3)CCC4(O)C(F)(F)F)c3c(=O)[nH]ccc32)CC1` (single isomer, unassigned) [Example 5-143, (R or S)-methyl 4-(cyanomethyl)-4-(3-((1-hydroxy-1-(trifluoromethyl)-2,3-dihydro-1H-inden-5-yl)amino)-4-oxo-4,5-dihydro-1H-pyrazolo[4,3-c]pyridin-1-yl)piperidin-1-carboxylate], in that order: 180 pM and 660 pM.
For `CC(C)(C)OC(=O)N1CCC(CC#N)(n2nc(Nc3ccc4c(c3)CCC4=O)c3c(=O)[nH]ccc32)CC1` [Example 5-12, tert-butyl 4-(cyanomethyl)-4-(4-oxo-3-((1-oxo-2,3-dihydro-1H-inden-5-yl)amino)-4,5-dihydro-1H-pyrazolo[4,3-c]pyridin-1-yl)piperidine-1-carboxylate], the IC50 in assay [1] amounted to 120 pM; in assay [2], 610 pM.
Taken in the same sequence, the figures for `N#CC[C@@]1(n2nc(Nc3ccc(S(=O)(=O)C4CCCCC4)cc3)c3c(=O)[nH]ccc32)CCCOC1` [Example 5-193, [(3S)-3-(3-{[4-(cyclohexylsulfonyl)phenyl]amino}-4-oxo-4,5-dihydro-1H-pyrazolo[4,3-c]pyridin-1-yl)tetrahydro-2H-pyran-3-yl]acetonitrile] were 420 pM and 660 pM.
In the case of `CN(C)[C@H]1CC[C@@](CC#N)(n2nc(Nc3ccc4c(c3)CN(C(C)(C)C)S4(=O)=O)c3c(=O)[nH]ccc32)CC1` [Example 18-38, Cis 2-(1-(3-((2-(tert-butyl)-1,1-dioxido-2,3-dihydrobenzo[d]isothiazol-5-yl)amino)-4-oxo-4,5-dihydro-1H-pyrazolo[4,3-c]pyridin-1-yl)-4-(dimethylamino)cyclohexyl)acetonitrile], the results for the IC50 in assay [1] and in assay [2] were 16100 pM and 211000 pM, respectively.
Taken in the same sequence, the figures for `CN(C)c1ccc2cc(Nc3nn([C@]4(CC#N)CCCOC4)c4cc[nH]c(=O)c34)ccc2n1` [Example 5-225, (S)-2-(3-(3-((2-(dimethylamino)quinolin-6-yl)amino)-4-oxo-4,5-dihydro-1H-pyrazolo[4,3-c]pyridin-1-yl)tetrahydro-2H-pyran-3-yl)acetonitrile] were 150 pM and 2300 pM.
